Source: ChEMBL document CHEMBL1201862, “PubChem BioAssay data set” (2004)
Active and inactive are the calls of the source.

Legend:
[1] = target: T1, Polyadenylate-binding protein 1 (Homo sapiens, UniProt P11940); assay: MLLE binding blockers, Cy5 peptide tracer – biochemical, fluorescence polarization, Cy5-PAM2 peptide, secondary, miRNA deadenylation inhibitor project, dose response (AID 602260); type: functional; conditions: read-out: IC50_Mean
[2] = target: T1, Polyadenylate-binding protein 1; assay: MLLE domain peptide-binding blockers, IC50 – biochemical, fluorescence polarization, FITC-PAM2 peptide, dose response (AID 602259); type: functional; conditions: read-out: IC50_Mean
Cytochrome P450 3A4 = Cytochrome P450 3A4 (Homo sapiens, UniProt P08684); conditions: Potency;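 further: confirmatory qHTS run detecting inhibitors and substrates of CYP3A4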
Chain of Cytochrome P450 3A4 (P08684 whole entry): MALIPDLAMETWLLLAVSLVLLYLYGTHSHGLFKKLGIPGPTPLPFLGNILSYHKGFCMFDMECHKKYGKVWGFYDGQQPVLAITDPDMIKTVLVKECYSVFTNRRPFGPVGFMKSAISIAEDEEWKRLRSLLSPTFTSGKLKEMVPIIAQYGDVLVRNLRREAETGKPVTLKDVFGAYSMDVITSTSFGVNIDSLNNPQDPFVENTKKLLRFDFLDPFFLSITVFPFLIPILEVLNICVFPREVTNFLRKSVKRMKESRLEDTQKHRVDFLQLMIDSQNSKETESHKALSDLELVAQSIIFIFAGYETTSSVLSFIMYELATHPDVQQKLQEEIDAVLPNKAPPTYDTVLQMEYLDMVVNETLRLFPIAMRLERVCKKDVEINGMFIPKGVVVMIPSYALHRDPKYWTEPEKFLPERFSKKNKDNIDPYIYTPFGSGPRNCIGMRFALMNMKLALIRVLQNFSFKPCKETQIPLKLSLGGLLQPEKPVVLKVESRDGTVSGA

[3] = Luminescence Cell-Based Dose Response HTS to Identify Activators of Luciferase Translation or Activity in H4 […] Cells. [Related pubchem assays: 1829 (Project Summary), 1814 (Primary HTS)]; type: functional
[4] = Luminescence Cell-Based Dose Confirmation HTS to Identify Activators of 5'UTR Stem-Loop Driven Alpha-Synuclein mRNA Translation in H4 Neuroglioblastoma Cells. [Related pubchem assays: 1829 (Project Summary), 1814 (Primary HTS)]; type: functional
H4 = assay: Luminescence Cell-Based Dose Response HTS to Identify Activators of 5'UTR Stem-Loop Driven Prion Protein mRNA Translation in H4 Neuroglioblastoma Cells. [Related pubchem assays: 1829 (Project Summary), 1814 (Primary HTS)]; type: functional; conditions: Homo sapiens
H9c2 = assay: cells; type: functional, cell-based; conditions: Rattus norvegicus, H9c2, Myocardium;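 further: confirmatory concentration-response retest of ultra-high-throughput screening hits for modulation of myocardial damage; cell death induced by hydrogen peroxide oxidative stress; compound pretreatment for 60 min then peroxide exposure for 2 h; potency is for protecting the cells against peroxide damage rather than for killing them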
INS1 = assay: INS-1E survival protection against cytokine death – cell-based, luminescence, retest, dose response (AID 449756); type: functional; conditions: Rattus norvegicus;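 further: cell death triggered by IL-1 beta plus TNF-alpha plus IFN-gamma mixture; protective hits raise ATP signal compared with cytokine alone wells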
[5] = NIH3T3 cell viability loss – ATP luminescence, mouse fibroblasts, counter-screen, dose response (AID 2010); type: functional, cell-based;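 further: cells exposed to compound for about 90 hours before reading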
[6] = Trypanosoma cruzi growth suppression in host cells – NIH3T3 host cells, beta-gal luminescence, confirmation (AID 2044); type: functional, cell-based;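 further: intracellular parasites grown in NIH/3T3 mouse fibroblasts as host cells; luminescent beta-galactosidase reporter signal from transgenic T. cruzi replicating inside host cells; inhibitors lower the luminescence signal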
Streptokinase A = target: T2, Streptokinase A (Streptococcus pyogenes serotype M1, UniProt P10520); assay: viability-normalized secreted streptokinase activity reduction – plasminogen activation absorbance, OD405, dose response (AID 1914); type: functional, Streptococcus pyogenes M1 GAS;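 further: secreted streptokinase activity via plasminogen activation per viability signal from cell pellet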
T2 sequence (P10520 whole entry): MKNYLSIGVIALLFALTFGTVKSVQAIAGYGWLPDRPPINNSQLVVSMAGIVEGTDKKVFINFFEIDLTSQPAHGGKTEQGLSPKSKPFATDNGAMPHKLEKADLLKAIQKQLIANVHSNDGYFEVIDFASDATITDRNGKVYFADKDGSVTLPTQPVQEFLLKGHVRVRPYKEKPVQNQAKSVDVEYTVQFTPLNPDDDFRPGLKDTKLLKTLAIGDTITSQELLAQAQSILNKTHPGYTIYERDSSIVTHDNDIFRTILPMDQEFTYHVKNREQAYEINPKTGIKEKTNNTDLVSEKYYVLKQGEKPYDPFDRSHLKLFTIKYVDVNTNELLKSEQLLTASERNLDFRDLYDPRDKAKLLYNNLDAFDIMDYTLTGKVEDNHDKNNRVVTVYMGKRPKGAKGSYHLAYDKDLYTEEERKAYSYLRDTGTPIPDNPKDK

Streptococcus = assay: GAS UMAA2166 growth inhibition – luminescence, BacTiterGlo, counter-screen for streptokinase expression inhibitor project, dose response (AID 1915); type: functional, organism-based;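 further: potency for reduction of bacterial viability or growth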
[7] = tested on: Streptococcus sp. 'group A'; assay: Streptococcus pyogenes SK(-)GAS viability under kanamycin – luminescence, BacTiterGlo, confirmation, counter-screen for streptokinase expression inhibitor project, dose response (AID 1900); type: functional, organism-based
[8] = intracellular Trypanosoma cruzi inhibitors in host cells – cell-based, plate reader, cherry-pick samples, set 3, dose response (AID 651818); type: functional;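 further: compounds incubated with infected cells for about four days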

T1 sequence (P11940 whole entry, the tested form may be a part): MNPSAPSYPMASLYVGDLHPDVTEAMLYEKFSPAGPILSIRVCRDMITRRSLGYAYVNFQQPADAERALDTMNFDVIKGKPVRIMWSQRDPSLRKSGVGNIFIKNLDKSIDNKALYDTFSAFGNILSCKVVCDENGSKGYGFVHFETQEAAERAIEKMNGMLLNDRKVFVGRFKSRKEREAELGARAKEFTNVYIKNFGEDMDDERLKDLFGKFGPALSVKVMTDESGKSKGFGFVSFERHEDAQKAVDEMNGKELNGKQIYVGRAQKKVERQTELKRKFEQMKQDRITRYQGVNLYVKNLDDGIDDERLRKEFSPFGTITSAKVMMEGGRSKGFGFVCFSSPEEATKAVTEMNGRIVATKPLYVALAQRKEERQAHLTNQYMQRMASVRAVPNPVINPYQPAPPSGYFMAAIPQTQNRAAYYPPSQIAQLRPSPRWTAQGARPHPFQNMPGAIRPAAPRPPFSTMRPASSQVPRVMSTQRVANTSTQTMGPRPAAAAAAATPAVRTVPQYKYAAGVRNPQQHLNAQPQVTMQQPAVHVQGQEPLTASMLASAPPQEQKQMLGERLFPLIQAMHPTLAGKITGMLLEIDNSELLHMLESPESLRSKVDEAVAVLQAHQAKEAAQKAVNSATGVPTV

For `COc1ccc(-c2csc(NC(=O)CSc3n[nH]c(N)n3)n2)cc1`, the IC50 [1] was > 66 µM (inactive) and the IC50 [2] was > 66 µM (inactive).
With `CCOC(=O)CC1=C(C(=O)OCC)C(c2ccc(C)o2)C(C#N)=C(N)O1` (stereo unspecified) the IC50 [1] was > 66 µM (inactive) and the IC50 [2] was 32 µM (inactive).
With `CCC1OC(=O)C(C)[C@@H](O[C@H]2C[C@@](C)(OC)C(O)C(C)O2)C(C)[C@@H](O[C@@H]2OC(C)CC(N(C)C)C2O)[C@@](C)(O)CC(C)C(=O)[C@@H](C)C(O)[C@]1(C)O` (stereo partly specified) the AC50 (Cytochrome P450 3A4) was 31.6 µM (inconclusive).
In the case of `CCCc1cc(C(=O)NCC(C)C)no1`, the EC50 [3] was 22.9 µM (active) and the EC50 [4] was 14.8 µM (active).
With `Cc1cc(Nc2nc3ccccc3nc2Cl)n(-c2ccccc2)n1` the EC50 [3] was > 120 µM (not active), the EC50 (H4) was > 120 µM (not active) and the EC50 [4] was > 120 µM (not active).
In the case of `COC(c1ccccc1)C(C)C(OC)C(C)C(OC)C(C)C(C)=O` (stereo unspecified), the AC50 (Cytochrome P450 3A4) was 3.98 µM (inconclusive).
In the case of `COc1cc(C=O)c([N+](=O)[O-])cc1OC`, the AC50 (Cytochrome P450 3A4) was 25.1 µM (inconclusive).
For `CC(=O)Nc1ccc(SCC(=O)Nc2ccccc2Oc2ccccc2)cc1`, the IC50 [1] was > 66 µM (inactive) and the IC50 [2] was > 66 µM (inactive).
In the case of `COc1ccc2cc(-c3[nH]ncc3CN3CCCCO3)ccc2c1`, the EC50 [3] was 25 µM (active), the EC50 (H4) was > 60 µM (not active) and the EC50 [4] was > 120 µM (not active).
In the case of `Cc1cc(NS(=O)(=O)c2ccc(NC(=S)NC(=O)c3ccc(Br)cc3)cc2)no1`, the IC50 [1] was > 66 µM (inactive) and the IC50 [2] was > 66 µM (inactive).
In the case of `COC(=O)c1cc2ccccn2c2c(C(=O)OC)c(C(=O)OC)cc1-2`, the IC50 (H9c2) was > 79 µM (inactive).
In the case of `Cn1c(-c2ccc(F)cc2)cnc1SCC(=O)Nc1ccccc1N1CCOCC1`, the EC50 (H4) was 0.244 µM (active).
For `CCc1nnc2c3cnn(-c4ccccc4)c3ncn12`, the EC50 [3] was 113 µM (active), the EC50 (H4) was > 120 µM (not active) and the EC50 [4] was 5.12 µM (active).
For `N#Cc1ccc(C23CC4(C2)[C@H](CN(Cc2ccc(C(F)(F)F)cc2)[C@@H]4c2ccccc2)C3c2ccccc2)cc1` (stereo partly specified), the AC50 (Cytochrome P450 3A4) was 25.1 µM (inconclusive).
In the case of `COC(=O)c1ccc(C23CC4(C2)[C@H](CN(C)[C@@H]4c2ccccc2)C3c2ccccc2)cc1` (stereo partly specified), the AC50 (Cytochrome P450 3A4) was 12.6 µM (inconclusive).
For `Cc1cc(Nc2nc3ccccc3nc2Cl)n(-c2ccc([N+](=O)[O-])cc2)n1`, the AC50 (INS1) was 8.83 µM (active), the EC50 [5] was > 60 µM (not active) and the EC50 [6] was 2.24 µM (active).
For `COc1ccc2occ(C(=O)c3coc4ccc(O)c(CN(C)C)c34)c2c1`, the IC50 (H9c2) was > 79 µM (inactive).
In the case of `Cn1nc(C(=O)Nc2nc(-c3ccccn3)cs2)c2ccccc2c1=O`, the IC50 (H9c2) was > 79 µM (inactive).
In the case of `CCCCC(=O)Nc1cc(C)c2c(=O)oc3ccccc3c2n1`, the IC50 (H9c2) was > 79 µM (inactive).
In the case of `Cc1nc(/N=N\c2cc(S(=O)(=O)O)c3cc([N+](=O)[O-])cc(S(=O)(=O)O)c3c2)c(COP(=O)(O)O)c(C=O)c1O`, the AC50 (Cytochrome P450 3A4) was 15.8 µM (inconclusive).
With `CC(C)CCn1cc[n+](C2=C([N-]S(=O)(=O)c3ccccc3)C(=O)c3ccccc3C2=O)c1` the AC50 (INS1) was 4.76 µM (active).
In the case of `O=C(NC(=S)NC1CCSC1=O)c1cccc([N+](=O)[O-])c1` (stereo unspecified), the IC50 [1] was > 66 µM (inactive) and the IC50 [2] was > 66 µM (inactive).
With `Cc1cccc(OCCn2c(NC(=O)c3ccco3)nc3ccccc32)c1` the IC50 (H9c2) was 11 µM (active), the EC50 (Streptokinase A) was > 150 µM (not active) and the EC50 (Streptococcus) was 7.32 µM (active). The EC50 [7] was 4.74 µM (active), the EC50 [5] was 29.8 µM (active) and the EC50 [6] was 1.69 µM (active).
For `Cc1ccc(-c2nnc(O)c3ccccc23)cc1N`, the IC50 (H9c2) was 34.5 µM (inactive).
In the case of `CN(C)S(=O)(=O)c1ccc(NC(=O)COC(=O)Cn2[nH]c(=O)c3ccccc3c2=O)cc1`, the IC50 (H9c2) was > 79 µM (inactive).
In the case of `CC(Cc1cccs1)NC(=O)NC1CCCCC1` (stereo unspecified), the EC50 [3] was 68.9 µM (active), the EC50 (H4) was 39.8 µM (active) and the EC50 [4] was > 60 µM (not active).
For `C=C1CC[C@@H]2O[C@@]2(C)CC[C@H]2[C@H]1CC2(C)C`, the AC50 (Cytochrome P450 3A4) was 39.8 µM (inconclusive).
In the case of `O=C(CSc1nc(O)c(Cc2ccccc2)c(O)n1)c1ccccc1`, the EC50 [3] was > 120 µM (not active), the EC50 (H4) was 14.4 µM (active) and the EC50 [4] was 14.7 µM (active).
In the case of `COc1ccc(-n2ccnc(SCC(=O)NC3CCCC3)c2=O)cc1OC`, the IC50 [1] was > 66 µM (inactive) and the IC50 [2] was > 66 µM (inactive).
In the case of `COCCNC(=O)Cc1c(C)c2c(cc(C)c3c(C(C)(C)C)coc32)oc1=O`, the EC50 [3] was 10.1 µM (active), the EC50 (H4) was > 120 µM (not active) and the EC50 [4] was > 120 µM (not active).
In the case of `Cc1ccc2[nH]c(SCc3nc(O)c4ccccc4n3)nc2c1`, the IC50 (H9c2) was > 79 µM (inactive).
With `Cc1cc(C2(c3cc(C)c(O)cc3C)OS(=O)(=O)c3ccccc32)c(C)cc1O` the AC50 (Cytochrome P450 3A4) was 7.94 µM (inconclusive).
For `Cc1ccc(NC(=O)CN2C(=O)S/C(=C/c3ccncc3)C2=O)cc1`, the IC50 [1] was > 66 µM (inactive) and the IC50 [2] was > 66 µM (inactive).
With `C[C@H](CO)N1C[C@H](C)[C@@H](CN(C)S(=O)(=O)c2ccccc2)Oc2c(NC(=O)Nc3ccccc3)cccc2C1=O` the AC50 [8] was 20 µM (inactive).
For `Cc1c(OCC(=O)NCCN2CCOCC2)ccc2c1oc(=O)c1ccccc12`, the IC50 (H9c2) was > 79 µM (inactive).
For `Cc1ccc(S(=O)(=O)Nc2ccc3c(c2)CC(=O)N([C@H](C)CO)C[C@@H](C)[C@@H](CN(C)Cc2ccc(C(=O)Nc4ccccc4N)cc2)O3)cc1`, the AC50 [8] was 3.25 µM (active).
For `C[C@@H]1CN([C@@H](C)CO)C(=O)c2cccc(NC(=O)CCCCCC(=O)Nc3ccccc3N)c2O[C@H]1CN(C)Cc1ccc(Cl)c(Cl)c1`, the AC50 [8] was 3.06 µM (active).
In the case of `C[C@@H]1CN([C@@H](C)CO)C(=O)c2cccc(NS(=O)(=O)c3ccc(Cl)cc3)c2O[C@@H]1CN(C)C(=O)Nc1ccc(C(F)(F)F)cc1`, the AC50 [8] was 3.58 µM (active).
With `C[C@@H]1CN([C@H](C)CO)C(=O)Cc2cc(NS(=O)(=O)c3ccccc3)ccc2O[C@@H]1CN(C)Cc1ccc(-c2ccccc2)cc1` the AC50 [8] was 3.26 µM (active).
In the case of `C[C@@H]1CN([C@@H](C)CO)C(=O)c2cccc(NC(=O)CCCCCC(=O)Nc3ccccc3N)c2O[C@@H]1CN(C)Cc1ccc(Oc2ccccc2)cc1`, the AC50 [8] was 2.17 µM (active).
In the case of `Cc1ccc(S(=O)(=O)N(C)C[C@H]2Oc3c(NC(=O)CCCCCC(=O)Nc4ccccc4N)cccc3C(=O)N([C@H](C)CO)C[C@@H]2C)cc1`, the AC50 [8] was 1.42 µM (active).
For `C[C@@H]1CN([C@@H](C)CO)C(=O)c2cccc(N(C)C)c2O[C@@H]1CN(C)Cc1ccc(Oc2ccccc2)cc1`, the AC50 [8] was 6.65 µM (active).
In the case of `C[C@@H]1CN([C@@H](C)CO)C(=O)c2cccc(NC(=O)Nc3ccccc3)c2O[C@@H]1CN(C)S(=O)(=O)c1cccs1`, the AC50 [8] was 14.8 µM (active).
In the case of `C[C@H]1CN([C@@H](C)CO)C(=O)c2cc(NC(=O)Nc3cccc4ccccc34)ccc2O[C@H]1CN(C)Cc1ccc(-c2ccccc2)cc1`, the AC50 [8] was 5.22 µM (active).
With `C[C@H]1CN([C@@H](C)CO)C(=O)Cc2cc(N(C)C)ccc2O[C@@H]1CN(C)Cc1ccc(-c2ccccc2)cc1` the AC50 [8] was 2.21 µM (active).
For `Cc1nc2ccccc2c(=O)[nH]1`, the IC50 (H9c2) was > 79 µM (inactive).
In the case of `BrC1C(Br)C(Br)C(Br)C(Br)C1Br` (stereo unspecified), the AC50 (Cytochrome P450 3A4) was 15.8 µM (inconclusive).
In the case of `CCCCCCCCCc1ccc(O)cc1` [4-NONYLPHENOL], the AC50 (Cytochrome P450 3A4) was 31.6 µM (inconclusive).
In the case of `C=C1CCC(=O)C(C)CCC2C1CC2(C)C` (stereo unspecified) [DIHYDROCARYOPHYLLEN-5-ONE], the AC50 (Cytochrome P450 3A4) was 25.1 µM (inconclusive).
